Experimental data: US8536226B2, “Methods for the treatment of dermatological disorders” (Janssen Pharmaceutica, NV, priority 2008, dated 2013)
Where “and” joins values, the source holds several entries; their conditions need not be identical. Identical values can stand only once. Like-named read-outs stand apart in the source and are kept apart here.

Assays:
rabbit adipocytes = details: read-out: EC50, lipolytic activity; cited from earlier work
[1] = system: isolated human adipocytes; details: concentrations as high as 1 μM; cited from earlier work
[2] = system: isolated non-human primate adipocytes; details: concentrations as high as 1 μM; cited from earlier work
rat adipocytes = details: read-out: EC50, lipolytic activity; cited from earlier work
[3] = target: T1, Melanocortin-5 (MC-5) receptor (Homo sapiens, UniProt P33032); assay: MC-5 receptor binding assay, MDS-PANLABS (human recombinant HEK-293 cells, [125]NDP-α-MSH); design: host or cells: HEK-293 cells
T1 sequence (P33032 whole entry): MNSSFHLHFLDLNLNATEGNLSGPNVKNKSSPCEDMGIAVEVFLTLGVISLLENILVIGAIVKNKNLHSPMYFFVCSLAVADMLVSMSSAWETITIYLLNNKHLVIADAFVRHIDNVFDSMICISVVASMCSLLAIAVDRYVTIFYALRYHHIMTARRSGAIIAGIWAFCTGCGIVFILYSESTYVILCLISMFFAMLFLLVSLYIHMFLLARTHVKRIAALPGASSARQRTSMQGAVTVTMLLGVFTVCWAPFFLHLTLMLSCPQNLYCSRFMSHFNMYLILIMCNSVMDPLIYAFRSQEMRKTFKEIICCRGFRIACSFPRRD
Description: (§1) Binding to the MC-5 receptor was measured in two assays, performed by CEREP and MDS-PANLABS.
The assay run by MDS-PANLABS (Catalog Ref #251400) used human recombinant HEK-293 cells, ^[125]NDP-α-MSH as the ligand (0.035 nM), various concentrations of the compound of formula (I), incubating at 37° C. for 60 min, and detecting binding via scintillation counting. Specific ligand binding to the receptors was defined as the difference between the total binding and the nonspecific binding determined in the presence of an excess (3 μM) of unlabelled NDP-α-MSH. IC50 values were determined by a non-linear, least squares regression analysis using Data Analysis Toolbox. Inhibition constants (Ki) were calculated using the equation of Cheng and Prusoff (Biochem. Pharmacol. 22:3099, 1973) using the observed IC50 of the tested compound, the concentration of radioligand employed in the assay, and the historical values for the Kd of the ligand (obtained experimentally at MDS Pharma Services).
The compound of formula (I) was tested for binding to the MC-5 receptor in both the CEREP and MDS-PANLABS assays with results as listed in Table 3 below.

[4] = target: T1, Melanocortin-5 (MC-5) receptor; assay: MC-5 receptor binding assay, CEREP (human recombinant CHO cells, [125]NDP-α-MSH)
Description: as §1
The assay run by CEREP (Catalog Ref. #889-5h) used human recombinant CHO cells, ^[125]NDP-α-MSH as the ligand (0.05 nM concentration), NDP-α-MSH as the non-specific (1 μM), incubating at 37° C. for 60 min and detecting binding via scintillation counting. The specific ligand binding to the receptors was defined as the difference between the total binding and the nonspecific binding determined in the presence of an excess of unlabelled ligand. The IC50 values (the concentration causing a half-maximal inhibition of control specific binding) and Hill coefficients were determined by non-linear regression analysis of the competition curves generated with mean replicate values using Hill equation curve fitting (Y=D+[(A−D)/(1+(C/C50)^nH)], where Y=specific binding, D=minimum specific binding, A=maximum specific binding, C=compound concentration, C50=IC50, and nH=slope factor). This analysis was performed using software developed at CEREP (Hill software) and validated by comparison with data generated by the commercial software SigmaPlot® 4.0 for Windows® (© 1997 by SPSS Inc.). The inhibition constants (Ki) were calculated using the Cheng Prusoff equation (Ki=IC50/(1+(L/KD)), where L=concentration of radioligand in the assay, and KD=affinity of the radioligand for the receptor). […]

human sebocytes [5] = assay: cells; type: cell-based
human sebocytes [6] = assay: cells; type: cell-based; details: read-out: % Inhibition (Nile Red Fluorescence)

## αMSH
Rabbit adipocytes
  EC50: 3.7 nM

## ACTH: melanocortin neuropeptide arising from pro-opiomelanocortin (POMC) (SYSMEHFRWGKPVGKKRRPVKVYPNGAEDESAEAFPLEF; Corticotropin; UniProt P01189 138-176, looked up)
[1]
  effect on lipolysis: very little effect
[2]
  effect on lipolysis: very little effect
Rat adipocytes
  EC50: 1.34 nM
Rabbit adipocytes
  EC50: 16.4 nM

## COc1ccccc1N/C(=N\C(=S)Nc1ccccc1)c1ccccc1OC [Compound (I), 1-[(2-methoxy-phenyl)-(2-methoxy-phenylamino)-methylene]-3-phenyl-thiourea]
[3]; MDS-PANLABS MEAN ± SD
  IC50: 2350 ± 1670 nM
  Ki: 2200 ± 1560 nM
[3]; MDS-PANLABS assay, Cheng Prusoff, single runs
  Ki: 1100 nM and 3310 nM
[3]; MDS-PANLABS assay, HEK-293 cells, 0.035 nM radioligand, single runs
  IC50: 1170 nM and 3530 nM
[4]; CHO cells, 0.05 nM radioligand
  IC50: 57 µM
[4]; Cheng Prusoff
  Ki: 53 µM
Human sebocytes [5]; read-out: % Inhibition of Sebaceous Lipid Synthesis, cholesterol esters, Study 1, @ 0.8 μM
  inhibition at 0.8 µM: 30%
Human sebocytes [5]; read-out: % Inhibition of Sebaceous Lipid Synthesis, cholesterol esters, Study 1, @ 1.2 μM
  inhibition at 1.2 µM: 35%
Human sebocytes [5]; read-out: % Inhibition of Sebaceous Lipid Synthesis, cholesterol esters, Study 1, @ 1.6 μM
  inhibition at 1.6 µM: 45%
Human sebocytes [5]; read-out: % Inhibition of Sebaceous Lipid Synthesis, cholesterol esters, Study 1, @ 3.2 μM
  inhibition at 3.2 µM: 60%
Human sebocytes [5]; read-out: % Inhibition of Sebaceous Lipid Synthesis, cholesterol esters, Study 2, @ 0.4 μM
  inhibition at 0.4 µM: 44%
Human sebocytes [5]; read-out: % Inhibition of Sebaceous Lipid Synthesis, cholesterol esters, Study 2, @ 0.8 μM
  inhibition at 0.8 µM: 64%
Human sebocytes [5]; read-out: % Inhibition of Sebaceous Lipid Synthesis, cholesterol esters, Study 2, @ 1.2 μM
  inhibition at 1.2 µM: 72%
Human sebocytes [5]; read-out: % Inhibition of Sebaceous Lipid Synthesis, cholesterol esters, Study 2, @ 1.6 μM
  inhibition at 1.6 µM: 74%
Human sebocytes [5]; read-out: % Inhibition of Sebaceous Lipid Synthesis, cholesterol esters, Study 2, @ 3.2 μM
  inhibition at 3.2 µM: 86%
Human sebocytes [5]; read-out: % Inhibition of Sebaceous Lipid Synthesis, squalene, Study 1, @ 0.8 μM
  inhibition at 0.8 µM: 50%
Human sebocytes [5]; read-out: % Inhibition of Sebaceous Lipid Synthesis, squalene, Study 1, @ 1.2 μM
  inhibition at 1.2 µM: 55%
Human sebocytes [5]; read-out: % Inhibition of Sebaceous Lipid Synthesis, squalene, Study 1, @ 1.6 μM
  inhibition at 1.6 µM: 62%
Human sebocytes [5]; read-out: % Inhibition of Sebaceous Lipid Synthesis, squalene, Study 1, @ 3.2 μM
  inhibition at 3.2 µM: 76%
Human sebocytes [5]; read-out: % Inhibition of Sebaceous Lipid Synthesis, squalene, Study 2, @ 0.4 μM
  inhibition at 0.4 µM: 64%
Human sebocytes [5]; read-out: % Inhibition of Sebaceous Lipid Synthesis, squalene, Study 2, @ 0.8 μM
  inhibition at 0.8 µM: 88%
Human sebocytes [5]; read-out: % Inhibition of Sebaceous Lipid Synthesis, squalene, Study 2, @ 1.2 μM
  inhibition at 1.2 µM: 92%
Human sebocytes [5]; read-out: % Inhibition of Sebaceous Lipid Synthesis, squalene, Study 2, @ 1.6 μM
  inhibition at 1.6 µM: 94%
Human sebocytes [5]; read-out: % Inhibition of Sebaceous Lipid Synthesis, squalene, Study 2, @ 3.2 μM
  inhibition at 3.2 µM: 96%
Human sebocytes [5]; read-out: % Inhibition of Sebaceous Lipid Synthesis, triglycerides, Study 1, @ 0.8 μM
  inhibition at 0.8 µM: 0%
Human sebocytes [5]; read-out: % Inhibition of Sebaceous Lipid Synthesis, triglycerides, Study 1, @ 1.2 μM
  inhibition at 1.2 µM: 10%
Human sebocytes [5]; read-out: % Inhibition of Sebaceous Lipid Synthesis, triglycerides, Study 1, @ 1.6 μM
  inhibition at 1.6 µM: 8%
Human sebocytes [5]; read-out: % Inhibition of Sebaceous Lipid Synthesis, triglycerides, Study 1, @ 3.2 μM
  inhibition at 3.2 µM: 2%
Human sebocytes [5]; read-out: % Inhibition of Sebaceous Lipid Synthesis, triglycerides, Study 2, @ 0.4 μM
  inhibition at 0.4 µM: 22%
Human sebocytes [5]; read-out: % Inhibition of Sebaceous Lipid Synthesis, triglycerides, Study 2, @ 0.8 μM
  inhibition at 0.8 µM: 20%
Human sebocytes [5]; read-out: % Inhibition of Sebaceous Lipid Synthesis, triglycerides, Study 2, @ 1.2 μM
  inhibition at 1.2 µM: 16%
Human sebocytes [5]; read-out: % Inhibition of Sebaceous Lipid Synthesis, triglycerides, Study 2, @ 1.6 μM
  inhibition at 1.6 µM: 14%
Human sebocytes [5]; read-out: % Inhibition of Sebaceous Lipid Synthesis, triglycerides, Study 2, @ 3.2 μM
  inhibition at 3.2 µM: 6%
Human sebocytes [6]
  inhibition at 0.4 µM: 24%
  inhibition at 0.6 µM: 25%
  inhibition at 0.8 µM: 39%
  inhibition at 1 µM: 45%
  inhibition at 1.2 µM: 43%
